Measured values reported in ChEMBL document CHEMBL1135943, “Modifications and structure-activity relationships at the 2-position of 4-sulfonamidopyrimidine derivatives as potent endothelin antagonists” (Bioorg Med Chem Lett, 2002).
pIC50: −log10 of the molar value. Converted amounts (≈) assume the structure as drawn. Values belong to the compound of their own block, whether it stands above or below them.

How the values were obtained:
Endothelin-1 receptor = target: T1, Endothelin-1 receptor (Sus scrofa, UniProt Q29010); experiment: In vitro inhibition of [125 I]ET-1 binding to Endothelin A receptor in porcine aortic membrane.; format: cell membranes
T1 sequence (Q29010 whole entry): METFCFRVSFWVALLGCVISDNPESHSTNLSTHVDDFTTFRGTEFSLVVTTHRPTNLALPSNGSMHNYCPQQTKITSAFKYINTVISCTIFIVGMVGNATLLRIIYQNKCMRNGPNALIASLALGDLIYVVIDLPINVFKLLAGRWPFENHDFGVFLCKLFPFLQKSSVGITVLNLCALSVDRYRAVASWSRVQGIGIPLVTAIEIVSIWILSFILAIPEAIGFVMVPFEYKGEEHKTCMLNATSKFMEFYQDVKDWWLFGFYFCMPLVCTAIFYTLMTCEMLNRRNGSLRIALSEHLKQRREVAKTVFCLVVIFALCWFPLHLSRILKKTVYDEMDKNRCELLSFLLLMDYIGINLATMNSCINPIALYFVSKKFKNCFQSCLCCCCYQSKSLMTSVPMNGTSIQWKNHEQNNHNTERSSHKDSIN

[1] = Water solubility at pH 7.4; format: physicochemical
[2] = target: T2, Endothelin receptor type B (Rattus norvegicus, UniProt P21451); experiment: In vitro inhibition of [125 I]ET-1 binding to Endothelin B receptor (ETB-receptor) in rat cerebellum membranes; format: cell membranes, Membrane
T2 sequence (P21451 whole entry): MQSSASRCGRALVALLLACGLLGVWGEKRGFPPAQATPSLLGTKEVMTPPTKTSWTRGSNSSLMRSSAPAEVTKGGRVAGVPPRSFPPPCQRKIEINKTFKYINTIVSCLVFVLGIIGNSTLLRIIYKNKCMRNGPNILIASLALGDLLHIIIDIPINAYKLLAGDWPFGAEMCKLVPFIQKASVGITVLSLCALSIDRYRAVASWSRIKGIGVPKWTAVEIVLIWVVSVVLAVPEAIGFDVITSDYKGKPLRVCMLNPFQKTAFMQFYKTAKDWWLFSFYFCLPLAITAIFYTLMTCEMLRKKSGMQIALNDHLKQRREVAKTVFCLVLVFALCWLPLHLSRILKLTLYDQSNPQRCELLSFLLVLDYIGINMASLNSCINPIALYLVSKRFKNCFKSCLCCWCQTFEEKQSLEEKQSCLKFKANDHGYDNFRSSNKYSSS

[3] = Water solubility at pH 7.5; format: physicochemical

Structure (SMILES): Cc1ccc(-c2c(NS(=O)(=O)c3ccc(C(C)(C)C)cc3)nc(-c3ccccc3)nc2OCCOc2ncc(Br)cn2)cc1
- pIC50 (Endothelin-1 receptor): < 8.00

Structure (SMILES): COc1ccccc1Oc1c(NS(=O)(=O)c2ccc(C(C)(C)C)cc2)nc(SCCC(=O)O)nc1OCCOc1ncc(Br)cn1
- pIC50 (Endothelin-1 receptor): 8.00

Structure (SMILES): CNCCNc1nc(NS(=O)(=O)c2ccc(C(C)(C)C)cc2)c(Oc2ccccc2OC)c(OCCOc2ncc(Br)cn2)n1
- pIC50 (Endothelin-1 receptor): < 8.00

Structure (SMILES): COc1ccccc1Oc1c(NS(=O)(=O)c2ccc(C(C)(C)C)cc2)nc(C(F)(F)F)nc1OCCOc1ncc(Br)cn1
- pIC50 (Endothelin-1 receptor): < 8.00

Structure (SMILES): COc1ccccc1Oc1c(NS(=O)(=O)c2ccc(C(C)(C)C)cc2)ncnc1OCCOc1ncc(Br)cn1
- solubility [1]: 160 µg/mL (≈ 254 µM)
- pIC50 [2]: < 9.00

Structure (SMILES): COc1ccccc1Oc1c(NS(=O)(=O)c2ccc(C(C)(C)C)cc2)nc(N)nc1OCCOc1ncc(Br)cn1
- pIC50 (Endothelin-1 receptor): < 8.00

Structure (SMILES): COc1nc(NS(=O)(=O)c2ccc(C(C)(C)C)cc2)c(Oc2ccccc2OC)c(OCCOc2ncc(Br)cn2)n1
- pIC50 (Endothelin-1 receptor): < 8.00

Structure (SMILES): COc1ccccc1Oc1c(NS(=O)(=O)c2ccc(C(C)(C)C)cc2)nc(N(C)CCO)nc1OCCOc1ncc(Br)cn1
- pIC50 (Endothelin-1 receptor): < 8.00

Structure (SMILES): COc1ccccc1Oc1c(NS(=O)(=O)c2ccc(C(C)(C)C)cc2)nc(NCCCO)nc1OCCOc1ncc(Br)cn1
- pIC50 (Endothelin-1 receptor): < 8.00

Second part, the compound after the results:

- pIC50 (Endothelin-1 receptor): 11.60
- solubility [1]: 2570 µg/mL (≈ 3520 µM)
- pIC50 [2]: < 9.00
Structure (SMILES): COc1ccccc1Oc1c(NS(=O)(=O)c2ccc(C(C)(C)C)cc2)nc(N2CCC(O)CC2)nc1OCCOc1ncc(Br)cn1

- pIC50 (Endothelin-1 receptor): 10.37
Structure (SMILES): Cc1ccc(-c2c(NS(=O)(=O)c3ccc(C(C)(C)C)cc3)nc(-c3ccccn3)nc2OCCOc2ncc(Br)cn2)cc1

- pIC50 (Endothelin-1 receptor): 8.80
Structure (SMILES): CCCc1nc(NS(=O)(=O)c2ccc(C(C)(C)C)cc2)c(-c2ccc(C)cc2)c(OCCOc2ncc(Br)cn2)n1

- pIC50 (Endothelin-1 receptor): 11.28
- solubility [1]: 7320 µg/mL (≈ 10600 µM)
- pIC50 [2]: < 9.00
Structure (SMILES): COc1ccccc1Oc1c(NS(=O)(=O)c2ccc(C(C)(C)C)cc2)nc(NCCO)nc1OCCOc1ncc(Br)cn1

- pIC50 (Endothelin-1 receptor): 8.41
Structure (SMILES): Cc1ccc(-c2c(NS(=O)(=O)c3ccc(C(C)(C)C)cc3)nc(-c3cccs3)nc2OCCOc2ncc(Br)cn2)cc1

- pIC50 (Endothelin-1 receptor): 8.57
Structure (SMILES): COc1ccccc1Oc1c(NS(=O)(=O)c2ccc(C(C)(C)C)cc2)nc(C)nc1OCCOc1ncc(Br)cn1

- pIC50 (Endothelin-1 receptor): 9.35
Structure (SMILES): COc1ccccc1Oc1c(NS(=O)(=O)c2ccc(C(C)(C)C)cc2)nc(N2CCN(C)CC2)nc1OCCOc1ncc(Br)cn1

- pIC50 (Endothelin-1 receptor): 9.70
Structure (SMILES): COc1ccccc1Oc1c(NS(=O)(=O)c2ccc(C(C)(C)C)cc2)nc(OCCO)nc1OCCOc1ncc(Br)cn1

- pIC50 (Endothelin-1 receptor): 10.59
Structure (SMILES): CCCc1nc(NS(=O)(=O)c2ccc(C(C)(C)C)cc2)c(Oc2ccccc2OC)c(OCCOc2ncc(Br)cn2)n1

- pIC50 (Endothelin-1 receptor): 8.96
Structure (SMILES): Cc1ccc(-c2c(NS(=O)(=O)c3ccc(C(C)(C)C)cc3)nc(C(C)C)nc2OCCOc2ncc(Br)cn2)cc1

- pIC50 (Endothelin-1 receptor): > 12.00
- solubility [3]: 1.6 µg/mL (≈ 2.67 µM)
Structure (SMILES): Cc1ccc(-c2c(NS(=O)(=O)c3ccc(C(C)(C)C)cc3)ncnc2OCCOc2ncc(Br)cn2)cc1

- pIC50 (Endothelin-1 receptor): 9.82
Structure (SMILES): COc1ccccc1Oc1c(NS(=O)(=O)c2ccc(C(C)(C)C)cc2)nc(SCCO)nc1OCCOc1ncc(Br)cn1
